± gives the standard deviation of the averaged measurements.
What follows are test systems tested with C=C1C[C@H]2C=Nc3cc(OCCCCCOc4cc5c(cc4OC)C(=O)N4CC(=C)C[C@H]4C=N5)c(OC)cc3C(=O)N2C1 [SG2057] (assay: absolute IC50 (cell viability, CellTiter-Glo); higher = less potent). Conditions: treatment time: 3 days.
Experimental: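 Large cancer cell line panel screens in 384-well plates. Cells were treated for 3 days with a 9-point dose titration of the free PBD dimer SG2057; viability was read with CellTiter-Glo. Absolute IC50 came from a four-parameter Hill fit normalised to the median of vehicle (DMSO) wells. Several independent screens (projects) per cell line are averaged; values in µM, lowest-dose floor about 1.524e-5 µM.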

**Q.** Which “absolute IC50” value does the source give for LN-18 here?
**A.** The value was 2.2 ± 1.4 nM.

**Q.** With LN-229 as the test system, how does the “absolute IC50” value read?
**A.** Its value is 2.6 ± 1.4 nM.

**Q.** With LNCAP clone FGC as the test system, how does the “absolute IC50” value read?
**A.** The value was 0.365 ± 0.13 nM.

**Q.** For LNCaP/Ner, which “absolute IC50” value is on record?
**A.** The value was 0.0717 nM.

**Q.** With LS1034 as the test system, how does the “absolute IC50” value read?
**A.** The value was 5.72 nM.

**Q.** For LTPA, which “absolute IC50” value is on record?
**A.** Its value is 1.46 nM.

**Q.** With LUDLU-1 as the test system, how does the “absolute IC50” value read?
**A.** The value was 9.43 nM.

**Q.** For LXFL529, which “absolute IC50” value is on record?
**A.** Its value is 2.72 nM.

**Q.** Which “absolute IC50” value does the source give for Li-7 here?
**A.** The value was 4.51 nM.

**Q.** For LoVo, which “absolute IC50” value is on record?
**A.** The value was 1.52 ± 0.43 nM.

**Q.** How did the “absolute IC50” value turn out when MAVER-1 was run?
**A.** The value was 0.0955 ± 0.065 nM.

**Q.** For MC-38, which “absolute IC50” value is on record?
**A.** The value was 0.186 nM.

**Q.** How did the “absolute IC50” value turn out when MC-38 Ovalbumin was run?
**A.** Its value is 0.208 nM.

**Q.** With MC-IXC as the test system, how does the “absolute IC50” value read?
**A.** Its value is 0.0163 nM.

**Q.** Which “absolute IC50” value does the source give for MCAS here?
**A.** The value was 0.42 ± 0.58 nM.

**Q.** With MCF 10A as the test system, how does the “absolute IC50” value read?
**A.** Its value is 3.78 ± 2.7 nM.

**Q.** MCF 10A AKT2 -/- (Sigma) was tested. Which “absolute IC50” value did it give?
**A.** The value was 2.14 nM.

**Q.** Which “absolute IC50” value does the source give for MCF 10A CDH1 -/- (Sigma) here?
**A.** Its value is 2.53 nM.

**Q.** How did the “absolute IC50” value turn out when MCF 10A PTEN -/- (Sigma) was run?
**A.** Its value is 2.54 nM.

**Q.** MCF-7 was tested. Which “absolute IC50” value did it give?
**A.** Its value is 2.5 ± 1.7 nM.

**Q.** How did the “absolute IC50” value turn out when MDA-MB-157 was run?
**A.** The value was 1.86 ± 1.7 nM.

**Q.** How did the “absolute IC50” value turn out when MDA-MB-361 was run?
**A.** The value was 1.96 ± 2.5 nM.

**Q.** How did the “absolute IC50” value turn out when MDA-MB-435 was run?
**A.** The value was 1.76 ± 2.4 nM.

**Q.** With MDA-MB-436 as the test system, how does the “absolute IC50” value read?
**A.** The value was 0.327 ± 0.2 nM.

**Q.** For MDA-MB-453, which “absolute IC50” value is on record?
**A.** Its value is 3.21 ± 2.3 nM.

**Q.** With MDA-MB-468 as the test system, how does the “absolute IC50” value read?
**A.** Its value is 0.353 ± 0.36 nM.

**Q.** With ME-180 as the test system, how does the “absolute IC50” value read?
**A.** Its value is 0.155 nM.

**Q.** For MEL-JUSO, which “absolute IC50” value is on record?
**A.** Its value is 0.875 ± 1 nM.

**Q.** How did the “absolute IC50” value turn out when MES-SA was run?
**A.** Its value is 0.135 ± 0.14 nM.

**Q.** How did the “absolute IC50” value turn out when MFM-223 was run?
**A.** The value was 0.743 ± 0.14 nM.

**Q.** How did the “absolute IC50” value turn out when MG-63 was run?
**A.** Its value is 0.284 nM.

**Q.** Which “absolute IC50” value does the source give for MHH-ES-1 here?
**A.** The value was 0.159 nM.

**Q.** How did the “absolute IC50” value turn out when MKN-1 was run?
**A.** The value was 0.867 ± 1.1 nM.

**Q.** Which “absolute IC50” value does the source give for MKN-7 here?
**A.** The value was 1.67 nM.

**Q.** MKN-45 was tested. Which “absolute IC50” value did it give?
**A.** The value was 1.08 ± 0.44 nM.

**Q.** For MKN-74, which “absolute IC50” value is on record?
**A.** Its value is 2.17 nM.

**Q.** How did the “absolute IC50” value turn out when ML-2 was run?
**A.** Its value is 0.0572 ± 0.013 nM.

**Q.** How did the “absolute IC50” value turn out when MM.1S was run?
**A.** Its value is 0.474 ± 0.49 nM.

**Q.** Which “absolute IC50” value does the source give for MMAc here?
**A.** Its value is 0.868 nM.

**Q.** How did the “absolute IC50” value turn out when MOLM-16 was run?
**A.** The value was 0.27 ± 0.29 nM.

**Q.** For MOLP-8, which “absolute IC50” value is on record?
**A.** Its value is 0.212 ± 0.014 nM.

**Q.** With MOR as the test system, how does the “absolute IC50” value read?
**A.** Its value is 8.9 nM.

**Q.** Which “absolute IC50” value does the source give for MPC-11 here?
**A.** Its value is 0.229 nM.

**Q.** Which “absolute IC50” value does the source give for MR1-3 here?
**A.** The value was 0.256 nM.

**Q.** Which “absolute IC50” value does the source give for MS751 here?
**A.** Its value is 0.683 nM.

**Q.** Which “absolute IC50” value does the source give for MT-3 here?
**A.** The value was 0.947 ± 0.64 nM.

**Q.** Which “absolute IC50” value does the source give for MX-1 here?
**A.** The value was 2.51 ± 2 nM.

**Q.** For MeWo, which “absolute IC50” value is on record?
**A.** The value was 1.08 ± 0.37 nM.

**Q.** With NAMALWA as the test system, how does the “absolute IC50” value read?
**A.** Its value is 0.0643 ± 0.031 nM.

**Q.** NB69 was tested. Which “absolute IC50” value did it give?
**A.** The value was 0.612 nM.

**Q.** Which “absolute IC50” value does the source give for NB(TU)1-10 here?
**A.** Its value is 0.604 nM.

**Q.** For NB-1, which “absolute IC50” value is on record?
**A.** The value was < 0.0152 nM.

**Q.** NB-4 was tested. Which “absolute IC50” value did it give?
**A.** Its value is 0.29 nM.

**Q.** With NCI-H28 as the test system, how does the “absolute IC50” value read?
**A.** The value was 0.89 nM.

**Q.** Which “absolute IC50” value does the source give for NCI-H146 here?
**A.** The value was 0.508 nM.

**Q.** How did the “absolute IC50” value turn out when NCI-H187 was run?
**A.** The value was 0.1 nM.

**Q.** How did the “absolute IC50” value turn out when NCI-H196 was run?
**A.** Its value is 2.69 nM.

**Q.** With NCI-H226 as the test system, how does the “absolute IC50” value read?
**A.** Its value is 1.27 ± 2.5 nM.

**Q.** With NCI-H322T as the test system, how does the “absolute IC50” value read?
**A.** The value was 0.912 nM.

**Q.** Which “absolute IC50” value does the source give for NCI-H358 here?
**A.** Its value is 0.959 ± 0.56 nM.

**Q.** Which “absolute IC50” value does the source give for NCI-H441 here?
**A.** Its value is 0.535 nM.

**Q.** With NCI-H446 as the test system, how does the “absolute IC50” value read?
**A.** The value was 0.244 nM.

**Q.** NCI-H460 was tested. Which “absolute IC50” value did it give?
**A.** The value was 0.242 ± 0.2 nM.

**Q.** With NCI-H520 as the test system, how does the “absolute IC50” value read?
**A.** The value was 4.03 ± 2.5 nM.

**Q.** How did the “absolute IC50” value turn out when NCI-H522 was run?
**A.** Its value is 0.544 nM.

**Q.** For NCI-H650, which “absolute IC50” value is on record?
**A.** The value was 2.97 ± 3.3 nM.

**Q.** Which “absolute IC50” value does the source give for NCI-H661 here?
**A.** The value was 1.78 ± 3.4 nM.

**Q.** NCI-H716 was tested. Which “absolute IC50” value did it give?
**A.** Its value is 6.9 ± 3.7 nM.

**Q.** For NCI-H727, which “absolute IC50” value is on record?
**A.** The value was 6.75 nM.

**Q.** How did the “absolute IC50” value turn out when NCI-H810 was run?
**A.** Its value is 1.42 nM.

**Q.** For NCI-H820, which “absolute IC50” value is on record?
**A.** The value was 1.48 nM.

**Q.** With NCI-H838 as the test system, how does the “absolute IC50” value read?
**A.** The value was 1.34 nM.

**Q.** For NCI-H889, which “absolute IC50” value is on record?
**A.** Its value is 1.32 nM.

**Q.** Which “absolute IC50” value does the source give for NCI-H920 here?
**A.** The value was 9.13 nM.

**Q.** With NCI-H1155 as the test system, how does the “absolute IC50” value read?
**A.** The value was 0.221 ± 0.2 nM.

**Q.** How did the “absolute IC50” value turn out when NCI-H1339 was run?
**A.** The value was 0.155 nM.

**Q.** With NCI-H1355 as the test system, how does the “absolute IC50” value read?
**A.** Its value is 2.88 ± 3 nM.

**Q.** With NCI-H1395 as the test system, how does the “absolute IC50” value read?
**A.** Its value is 1.66 nM.

**Q.** For NCI-H1437, which “absolute IC50” value is on record?
**A.** Its value is 2.05 ± 2 nM.

**Q.** How did the “absolute IC50” value turn out when NCI-H1563 was run?
**A.** The value was 3.61 nM.

**Q.** How did the “absolute IC50” value turn out when NCI-H1581 was run?
**A.** The value was 0.852 ± 0.72 nM.

**Q.** For NCI-H1648, which “absolute IC50” value is on record?
**A.** The value was 8.58 nM.

**Q.** Which “absolute IC50” value does the source give for NCI-H1650 here?
**A.** Its value is 2.52 nM.

**Q.** For NCI-H1651, which “absolute IC50” value is on record?
**A.** The value was 0.443 nM.

**Q.** How did the “absolute IC50” value turn out when NCI-H1666 was run?
**A.** The value was 0.888 ± 0.43 nM.

**Q.** Which “absolute IC50” value does the source give for NCI-H1703 here?
**A.** Its value is 0.36 ± 0.39 nM.

**Q.** With NCI-H1734 as the test system, how does the “absolute IC50” value read?
**A.** The value was 0.237 nM.

**Q.** With NCI-H1770 as the test system, how does the “absolute IC50” value read?
**A.** The value was 7.47 nM.

**Q.** How did the “absolute IC50” value turn out when NCI-H1792 was run?
**A.** Its value is 2.24 nM.

**Q.** With NCI-H1838 as the test system, how does the “absolute IC50” value read?
**A.** Its value is 2.32 ± 2.8 nM.

**Q.** For NCI-H1869, which “absolute IC50” value is on record?
**A.** The value was 2.35 nM.

**Q.** Which “absolute IC50” value does the source give for NCI-H1915 here?
**A.** The value was 2.4 nM.

**Q.** How did the “absolute IC50” value turn out when NCI-H1930 was run?
**A.** The value was 0.0346 nM.

**Q.** How did the “absolute IC50” value turn out when NCI-H1944 was run?
**A.** The value was 1.06 ± 0.29 nM.
